In test [1] the test system is bovine nasal cartilage. As to the kind of experiment: Ex vivo IL-2-stimulated bovine nasal cartilage destruction model. The class given is cell-based. Also on record: Inhibition of IL-2-stimulated bovine nasal cartilage destruction: unit not given here. To be noted: for inhibition at 1 µM / inhibition at 10 µM / inhibition at 100 µM: Bos taurus, read-out: Inhibition of IL-2-stimulated bovine nasal cartilage destruction.

The subject of test [2] is T-cell proliferation. As to the kind of experiment: T-cell (lymphocyte) proliferation inhibition. The class given is cell-based, human.
For test [3], the system named is IL-6. As to the kind of experiment: Cytokine inhibition profile: IL-6. The class given is cell-based. The note with it: read-out: Inhibition Profile (IC50) IL-6.
Test [4] relates to Interleukin-8 (IL-8). In words: Cytokine inhibition profile: IL-8. The class given is cell-based.
The test system of test [5] is IL-1. In words: Cytokine inhibition profile: IL-1. The class given is cell-based. The note with it: read-out: Inhibition Profile (IC50) IL-1.
Test [6] relates to IFN gamma. As to the kind of experiment: Cytokine inhibition profile: IFN gamma. The class given is cell-based. To be noted: read-out: Inhibition Profile (IC50) IFN gamma.
For test [7], the system named is TNF. As to the kind of experiment: Cytokine inhibition profile: TNF. To be noted: read-out: Inhibition Profile (IC50) TNF. The class given is cell-based.
For test [8], the system named is IL-2. As to the kind of experiment: Cytokine inhibition profile: IL-2. The class given is cell-based. The note with it: read-out: Inhibition Profile (IC50) IL-2.
Setting [9] is: read-out: Inhibition Profile (IC50) T-cell proliferation.

This note sets out measurements from US7034028B2, “Treatment of inflammatory disorders” (Arakis Ltd., priority 2000, dated 2006).

The structures appear in SMILES notation. Read-outs that look alike come from different tables or passages of the source.

`OC(c1cc(C(F)(F)F)nc2c(C(F)(F)F)cccc12)C1CCCCN1` (racemic) [(+/−) Mefloquine, mefloquine]: in test [1] (10 μM), the “Inhibition of IL-2-stimulated bovine nasal cartilage destruction” value came out at 20.

With `OC(c1cc(C(F)(F)F)nc2c(C(F)(F)F)cccc12)C1CCCCN1` (single isomer, unassigned; (-)) [(−)Mefloquine], the IC50 in test [2] (setting [9]) amounted to 10 µM; in test [3], 43 µM; in test [4], 63 µM; in test [5], 79 µM; in test [6] it was 18 µM; in test [7], 18 µM. For the same compound, the IC50 in test [8] worked out at 17 µM. The figures for the “Inhibition of IL-2-stimulated bovine nasal cartilage destruction” value in test [1] (1 μM), in test [1] (10 μM) and in test [1] (100 μM) were 37, 45 and 82, respectively.

Take `O[C@H](c1cc(C(F)(F)F)nc2c(C(F)(F)F)cccc12)[C@@H]1CCCCN1` [(+)Mefloquine, (+)-Erythro-mefloquine]: the “Suppression of human lymphocyte proliferation, in words” value in test [2] is listed as “suppresses”. Also, the IC50 in test [2] (setting [9]) was 11 µM; in test [3], 53 µM; in test [4] it was 41 µM; in test [5], 68 µM; in test [6] it was 17 µM; in test [7] it was 24 µM. Besides, the IC50 in test [8] amounted to 17 µM. Also, the “Inhibition of IL-2-stimulated bovine nasal cartilage destruction” value in test [1] (1 μM) stood at 32; in test [1] (10 μM), 44; in test [1] (100 μM) it was 71.

One may read the inhibition as the relative decrease from the control value, in per cent. On to `CCN(CC)CCCC(C)Nc1ccnc2cc(Cl)ccc12` (stereo not shown) [Chloroquine, chloroquine], for which the IC50 worked out at 13 µM in test [2] (Homo sapiens, T-cell, read-out: Inhibition Profile (IC50) T-cell proliferation); 81 µM in test [3]; 6.3 µM in test [5]; 63 µM in test [6]; 21 µM in test [7]; 66 µM in test [8]. For the same compound, the inhibition at 1 µM in test [1] worked out at 3%. Besides, the inhibition at 10 µM in test [1] was found to be 6%. Besides, the inhibition at 100 µM in test [1] is 35%. For the same compound, the “Inhibition Profile (IC50) IL-8” value in test [4] is reported as “Inactive”.

On to `CCN(CCO)CCCC(C)Nc1ccnc2cc(Cl)ccc12` (stereo not shown) [Hydroxychloroquine, hydroxychloroquine], for which the IC50 came out at 16 µM in test [2] (Homo sapiens, T-cell; read-out: Inhibition Profile (IC50) T-cell proliferation); 90 µM in test [3]; 21 µM in test [5]; 94 µM in test [6]; 32.2 µM in test [7]; 94 µM in test [8]. For the same compound, the inhibition at 1 µM in test [1] (1 μM) is 4%. Further, the inhibition at 10 µM in test [1] (10 μM) came out at 3%. Also, the inhibition at 100 µM in test [1] (100 μM) stood at 36%. Besides, in test [4], the “Activity against Interleukin-8 (IL-8), in words” value was “inactive”. For the same compound, the “Inhibition Profile (IC50) IL-8” value in test [4] was “Inactive”.
